Measurements taken from PMC3152598 (Biochemical pharmacology, 2011).
Blank lines part the entries; values can stand above or below the molecule they belong to.

Assays:
human A3 AR [1] = molecular target: T1, human A3 AR (Homo sapiens, UniProt P0DMS8); assay: Cyclic AMP accumulation assay
T1 sequence (P0DMS8 1-318): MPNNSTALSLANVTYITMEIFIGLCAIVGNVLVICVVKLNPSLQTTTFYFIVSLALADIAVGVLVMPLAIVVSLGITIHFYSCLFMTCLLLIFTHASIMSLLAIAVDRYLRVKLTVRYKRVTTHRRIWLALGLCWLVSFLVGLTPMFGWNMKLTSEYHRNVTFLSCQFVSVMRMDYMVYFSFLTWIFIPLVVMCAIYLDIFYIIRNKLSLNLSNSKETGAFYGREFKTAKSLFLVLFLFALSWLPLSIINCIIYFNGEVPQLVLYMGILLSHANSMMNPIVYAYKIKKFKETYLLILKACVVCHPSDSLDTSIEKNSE

human A3 AR [2] = molecular target: T1, human A3 AR; assay: cell-based; conditions: CHO, read-out: Ca2+ Emax
human A3 AR [3] = molecular target: T1, human A3 AR; assay: Membrane hyperpolarization; conditions: for Emax: CHO, read-out: hyperpolarization Emax; for agonist activity in membrane hyperpolarization assay, in words: agonist alone
human A3 AR [4] = molecular target: T1, human A3 AR; assay: cell-based; conditions: CHO, read-out: β-arrestin2 Emax
human A3 AR [5] = molecular target: T1, human A3 AR; conditions: LUF6000 10 μM
human A3 AR [6] = molecular target: T1, human A3 AR; conditions: no agonist
other subtypes of ARs = conditions: concentrations up to 10 μM; cited from earlier work
human A3 AR [7] = molecular target: T1, human A3 AR; conditions: agonist Cl-IB-MECA; LUF6000 1, 3, and 10 μM

Emax (human A3 AR [1]; CHO, read-out: cyclic AMP Emax): 95.8 ± 4.8%
Emax (human A3 AR [2]): 55.2 ± 3.4%
Emax (human A3 AR [3]): 58.3 ± 3.6%
Emax (human A3 AR [4]): 104 ± 5%
Compound: CNC(=O)[C@H]1O[C@@H](n2cnc3c(NCc4cccc(I)c4)nc(Cl)nc32)[C@H](O)[C@@H]1O [Cl-IB-MECA, 2-chloro-N^6-(3-iodobenzyl)adenosine-5′-N-methyluronamide]

Compound: Clc1ccc(Nc2nc3ccccc3c3[nH]c(C4CCC4)nc23)cc1Cl [LUF5999, N-(3,4-dichloro-phenyl)-2-cyclobutyl-1H-imidazo[4,5-c]quinolin-4-amine]
effect on agonist action (efficacy and potency), in words (human A3 AR [1]; agonist Cl-IB-MECA): concentration-dependently increasing efficacy while decreasing potency

agonist activity in membrane hyperpolarization assay, in words (human A3 AR [3]): equally efficacious as NECA
Compound: Nc1ncnc2c1ncn2[C@@H]1O[C@H](CO)[C@@H](O)[C@H]1O [adenosine]

Emax (human A3 AR [2]): 7.5 ± 2.5%
Emax (human A3 AR [3]): -3.8 ± 5.6%
agonist activity in membrane hyperpolarization assay, in words (human A3 AR [3]): did not show any agonist activity
Emax (human A3 AR [4]): 41.1 ± 3.2%
Compound: OC[C@H]1O[C@@H](n2cnc3c(NCc4cccc(I)c4)nc(Cl)nc32)[C@H](O)[C@@H]1O [MRS542, 2-chloro-N^6-(3-iodobenzyl)adenosine]

Compound: Clc1ccc(Nc2nc3ccccc3c3[nH]cnc23)cc1Cl [LUF6001, N-(3,4-dichloro-phenyl)-1H-imidazo[4,5-c]quinolin-4-amine]
effect on agonist action (efficacy and potency), in words (human A3 AR [1]; agonist Cl-IB-MECA): slightly decreased both the efficacy and potency

Compound: Clc1ccc(Nc2nc3ccccc3c3[nH]c(C4CCCCC4)nc23)cc1Cl [LUF6000, N-(3,4-dichloro-phenyl)-2-cyclohexyl-1H-imidazo[4,5-c]quinolin-4-amine]
enhancement of the effect of Cl-IB-MECA (human A3 AR [5]; agonist Cl-IB-MECA): less than 10%
enhancement of the effect of NECA (human A3 AR [5]; agonist NECA): less than 10%
enhancement of the efficacy of MRS542 (human A3 AR [5]; partial agonist MRS542): about 40%
concentration at which the efficacy-enhancing effect reaches a maximum (human A3 AR [1]; agonist Cl-IB-MECA): approx. 10 μM
concentration from which the efficacy-enhancing effect starts (human A3 AR [1]; agonist Cl-IB-MECA): ≤ 1 µM
relative enhancement of the efficacy of Cl-IB-MECA (human A3 AR [1]; agonist Cl-IB-MECA, LUF6000 10 μM): 50%
further enhancement at higher concentration (human A3 AR [1]; agonist Cl-IB-MECA, LUF6000 30 μM, data not shown): did not cause further enhancement
effect on agonist potency (human A3 AR [1]; agonist Cl-IB-MECA, modulator 10 μM or lower): did not significantly affect
maximum enhancement of the efficacy of NECA (human A3 AR [1]; agonist NECA, LUF6000 10 μM): about 16%
efficacy of inosine in presence of LUF6000, % of the level of NECA (human A3 AR [1]; agonist inosine, LUF6000 10 μM): 85%
effect on the inability of MRS1220 and MRS1191 to inhibit forskolin-stimulated cyclic AMP levels (human A3 AR [1]; nonnucleoside A3 AR antagonists MRS1220 and MRS1191, data not shown): did not show any effect
effect on the efficacy of CCPA (human A3 AR [1]; nucleoside antagonist CCPA): no effect
effect on the efficacy of MRS542 (human A3 AR [1]; nucleoside antagonist MRS542): no effect
efficacy of LUF5833, % of the control level (agonist alone) (human A3 AR [1]; partial agonist LUF5833, LUF6000 10 μM): over 200%
efficacy of MRS541, % of the control level (agonist alone) (human A3 AR [1]; partial agonist MRS541, LUF6000 10 μM): over 200%
effect of modulator alone on intracellular calcium mobilization (human A3 AR [6]): had no effect
further increase of the efficacy of Cl-IB-MECA at higher concentration (human A3 AR [3]; agonist Cl-IB-MECA, LUF6000 30 μM): did not induce a further increase
effect on the efficacy of adenosine (human A3 AR [3]; agonist adenosine, data not shown): did not show any effect
enhancement of the residual activity of inosine, MRS541 and LUF5833 (human A3 AR [3]; ligands inosine, MRS541, LUF5833): did not show any enhancement
effect of modulator alone on membrane hyperpolarization (human A3 AR [3]; no agonist): did not show any effect
binding at the other subtypes of ARs (other subtypes of ARs): did not bind appreciably
effect on the efficacy of Cl-IB-MECA in inducing ERK1/2 activation (human A3 AR [7]): had no effect

agonist activity in membrane hyperpolarization assay, in words (human A3 AR [3]): did not show any significant activation
Compound: O=c1[nH]cnc2c1ncn2[C@@H]1O[C@H](CO)[C@@H](O)[C@H]1O [inosine]

agonist activity in membrane hyperpolarization assay, in words (human A3 AR [3]): did not show any significant activation
Compound: OC[C@H]1O[C@@H](n2cnc3c(NCc4cccc(I)c4)ncnc32)[C@H](O)[C@@H]1O [MRS541, N^6-(3-iodobenzyl)adenosine]
